Measurements: a melting point compilation (Tetko et al.; mined from patent text by program, amines drawn as free bases though some values may be those of a salt)

Row | SMILES | melting point [°C]
1 | Nc1ccc(C(=O)c2cccnc2)cc1[N+](=O)[O-] | 229 to 230
2 | CNC(=O)c1ccccc1Nc1nc(Nc2ccc3c(c2)CCCCN3C)ncc1Cl | 170 to 172
3 | NN(c1ccccc1)C1CCS(=O)(=O)C1 (stereo unspecified) | 120 to 121
4 | O=C(O)C1CCc2cc(O)ccc2O1 (racemic) | 175 to 177
5 | CC(C)CN(C=NS(=O)(=O)c1c(Cl)nc2ccc(Cl)nn12)CC(C)C | 151 to 154
6 | CCn1cc(CO)c(OCc2ccc(OCc3nc(-c4ccco4)oc3C)c(OC)c2)n1 | 117 to 118
7 | O=C(O)C(CC1CCCC1)c1ccc(-c2cccnc2)cc1 (stereo unspecified) | 136 to 138
8 | COC(=O)c1nn(Cc2ccc(Cl)c(Cl)c2)c(=O)c2cc(OC)ccc12 | 144 to 146
9 | Cc1nn2c3c1c(=O)[nH]c(=O)n3CC=C2c1cc(Cl)ccc1Cl | 205 to 209
10 | Cc1cc(C)n(C)c(=O)c1C(=O)O | 200 to 204
11 | CS(=O)(=O)c1ccc(-c2oc(CCC(=O)O)nc2-c2ccc(F)cc2)cc1 | 197 to 198
12 | O=C1c2ccccc2C(=O)N1Cc1cnc2n1-c1ccc(Cl)cc1C(c1ccccc1Cl)=NC2 | 218 to 220
13 | CC(C)Cn1c(C(=O)O)c(-c2ccccc2F)c2cc(OCc3ccccc3)ccc2c1=O | 178 to 179
14 | O=C(CCc1cnoc1-c1ccc(Cl)cc1)Nc1cccnc1 | 197 to 198
15 | O=C(O)c1ccccc1C(=O)c1ccncc1 | 191 to 193
16 | Fc1ccc(-n2ccc3cc(-c4nnn[nH]4)ccc32)cc1 | 224 to 225
17 | CCN(CC)c1ccc(S(=O)(=O)N2CC(O)CC2=S)cc1 (stereo unspecified) | 149 to 150
18 | CCCCCCCCNC(=O)Oc1ccc(Oc2ccccc2)cc1 | 44 to 46
19 | OCC(CBr)(CBr)CBr | 67 to 69
20 | N#Cc1ccn(O)c1-c1ccc(Cl)cc1 | 148 to 150
21 | CC(C)(C)CC(C)(C)n1scc(Br)c1=O | 133 to 142
22 | OCc1c[nH]c2c1ccc1c3ccccc3[nH]c12 | > 295
23 | O=C1NCN(c2ccccc2)C12CCN(C1CCC(c3ccc(F)cc3)(c3ccc(F)cc3)CC1)CC2 | 249 to 253
24 | CC(=O)Nc1cc2c(cc1[N+](=O)[O-])C(CC(C)C)C(=O)N2 (stereo unspecified) | 192 to 197
25 | CN(C)CC1CCc2cc(NC(=O)c3ccc(-c4ccc(CO)cc4)cc3)ccc2C1 (stereo unspecified) | 138 to 139
26 | CC(C)(C)OC(=O)[C@@H]1CCCN1C[C@@H](O)[C@H](Cc1ccc(F)cc1)NC(=O)[C@H](CC(N)=O)NC(=O)OCc1ccccc1 | 163 to 164

Row | SMILES | melting point [°C]
27 | CCCCCCCCCCCCS(=O)(=O)CCOc1ccc(C/C=C(\OC(=O)CC)C(F)(F)F)cc1 | 60 to 63
28 | CN(C)NC(=O)N(O)C1c2ccccc2Oc2ccccc21 | 196 to 198
29 | COC(=N)N1CCC(c2n[nH]c3ccccc23)CC1 | 153 to 155
30 | CC(=O)Nc1ccc(-c2ccc(CCCC(=O)O)cc2)cc1Br | 155 to 156
31 | COc1ccc(Cc2cnc(N)nc2N)cc1OCCNS(=O)(=O)c1ccc(N)cc1 | 207 to 208
32 | COc1cc(Sc2ccncc2)ccc1[N+](=O)[O-] | 97 to 100
33 | Cc1nnc2ccc(-c3cccc(N(C)C(=O)N(C)C)c3)nn12 | 159 to 161
34 | Cn1nc(-c2cccc(N3Cc4cc(C(C)(C)C)ccc4C3=O)c2CO)cc(Nc2ccccn2)c1=O | 236 to 237
35 | O=C1CCCc2c1ccc(O)c2Br | 183 to 186
36 | O=S(=O)(Nc1ccccc1)c1cccc(Br)c1 | 98 to 100
37 | CC1OC(n2cc(F)c(N)nc2=O)C(O)C1OC(=O)c1ccccc1 (stereo unspecified) | 127 to 129
38 | NC1=NS(=O)N=C1NCCCNc1ccc(Br)cn1 (stereo unspecified) | 215 to 216
39 | N#Cc1ccc(Cn2c(N3CCC(CNc4nccc(O)n4)CC3)nc3ccccc32)cc1 | 198
40 | CC(=O)c1ccc(Cl)nc1 | 101 to 102
41 | O=C1C(=Cc2c(Cl)cccc2Cl)CCc2ccccc21 | 73.8 to 75.6
42 | COC1(OC)C(=O)Nc2ccc(C(=O)c3ccc(Cl)cc3)cc21 | 170
43 | CCC(Cc1ccccc1-c1ccccc1)C(=O)O (stereo unspecified) | 91.2 to 94
44 | NC1=NCC(NC=O)(N[C@@H]2CC=C(CO)C2)C(Cl)=N1 (stereo partly specified) | 148 to 150
45 | COc1c(OS(C)(=O)=O)ccc2[nH]ncc12 | 130 to 131
46 | CN1C(=O)C(C)(C)C(=O)N(C)c2cc(C(=O)O)ccc21 | > 275
47 | O=C(c1ccc(Br)cc1)c1cc2c(ccc3ccccc32)oc1=O | 213 to 215
48 | S=C1CN=C(c2ccccn2)c2cc(I)ccc2N1 | 242
49 | COc1ccc(S(=O)(=O)Nc2c(C)c(C)c3c(c2C)C(c2ccc(C(C)C)cc2)C(C)(C)O3)cc1 (stereo unspecified) | 206 to 208
50 | CC(C)N(CCC1(c2ccccc2Cl)CC(=O)NC1=O)C(C)C (stereo unspecified) | 116 to 119
51 | CC(C)Cn1c(=O)n(C)c(=O)c2c(Sc3cccs3)c(C(=O)c3cccnc3)sc21 | 111 to 115
52 | CCCCCCC(=O)C=Cc1ccc(OC(C)=O)c(OC(C)=O)c1 | 71 to 72

Row | SMILES | melting point [°C]
53 | CCCCCCCCCCCCCc1c(C(F)(F)F)noc1NS(=O)(=O)c1ccc(-c2ccccc2)cc1 | 115 to 116
54 | CC(Cn1ncnn1)n1nnc2cc3c(=O)n(CC(C)(C)O)nnc3cc2c1=O (stereo unspecified) | 128 to 130
55 | O=[N+]([O-])c1cccnc1Sc1nc(Cl)no1 | 84
56 | Cn1c(-c2ccc3ccccc3c2)nnc1S(C)=O (stereo unspecified) | 224 to 226
57 | Cn1cc(C(=O)NCc2ccc(Cl)cc2)c(=O)c2cc(CN3CCOCC3)cc(C#CCN3CCS(=O)(=O)CC3)c21 | 220 to 222
58 | Clc1ccc2ncc3nc(Br)n(-c4ccccc4Cl)c3c2c1 | 183 to 192
59 | C#CCOc1c(Cl)cc(Cl)cc1C(=O)O | 163 to 164
60 | CNC(=O)C(c1ccccc1F)N(C(=O)CNC(=O)Nc1cccc(C)c1)c1cccc(OC)c1 (stereo unspecified) | 110
61 | Cc1nc(C=NN(C)C)c2n1-c1ccc(Cl)cc1C(c1ccccc1Cl)=NC2 | 238 to 242
62 | O=c1c2c[nH]c3ccccc3c-2nn1-c1nccs1 | > 350
63 | ON=c1cc(-c2cn3cccc3cn2)oc2ccc(OCCc3ccc(F)cc3)cc12 | 248 to 250
64 | COCCOc1ccc2[nH]c(=O)n(C3CCCCC3)c2c1 | 182
65 | O=c1cc(NCCN2CCN(c3ccccc3F)CC2)cn[nH]1 | 103 to 105
66 | O=C(CCc1cccnc1)c1ccccc1 | 86 to 87
67 | CCOC(=O)C(=CN(C)C)C(=O)c1cc2cc(F)c(F)cc2nc1Cl | 140
68 | CCOCc1nc2c(N)nc3cc(-c4cccc(C(=O)N5CCOCC5)c4)cnc3c2n1CC(C)(C)O | 149 to 152
69 | O=S(=O)(Nc1ccc(Cl)nc1I)c1ccccc1 | 132
70 | O=C(O)c1cc(Cl)c(Cl)cc1C(=O)Nc1cccc(-c2ccnc3c(C(=O)c4cccs4)cnn23)c1 | > 270
71 | Cn1c(=O)[n+]([O-])c(-c2ccccc2)c2cc(Cl)ccc21 | 254
72 | N#Cc1ccc(Oc2ccc(CC(=O)O)cc2)cc1 | 126 to 128
73 | CCC(=O)Nc1cc(-c2c(-c3cccc(C)c3)nc3cccnn23)ccn1 | 138 to 139
74 | COc1cc(O)c(C=O)cc1Br | 63 to 64
75 | COc1cc2c(cc1S(C)(=O)=O)CCN(C(C)=O)CC2 | 159 to 162
76 | Cn1ncc2c(c1=O)C(Cc1ccccc1)NCCS2 (stereo unspecified) | 112 to 114
77 | CC(C)(C)NCC(O)COC(=O)c1ccc(OCc2ccccc2)c(OCc2ccccc2)c1 (stereo unspecified) | 85 to 86
78 | COC(=O)Nc1cccc(C)c1COc1cccn2c(C)c(C)nc12 | 176 to 177

Row | SMILES | melting point [°C]
79 | COc1cc2c(Nc3ccc(Cl)cc3F)ncnc2cc1OCCN1CCSCC1 | 181 to 182
80 | CCNc1nc(NC)cc(NS(=O)(=O)c2ccc(N)cc2)n1 | 261 to 263
81 | CCOC(=O)CC(O)(CC)c1cc2n(c(=O)c1CO)Cc1cc3ccccc3nc1-2 (stereo unspecified) | 157 to 161
82 | O=C(CC1(S(=O)c2ccc(Oc3ccc(F)cc3)cc2)CCOCC1)NO (stereo unspecified) | 120
83 | COc1ccc(-c2cc3c4n(ccc-3n2)CC(C)=N4)cc1 | 168
84 | COc1cc(-c2nc3ccc(OCCN4CCCC4)cc3n2Cc2ccccc2C(F)(F)F)cc(OC)c1OC | 143
85 | CC(C)OP(=O)(OC(C)C)c1nc(N)nc(N)n1 | > 400
86 | CC(=O)NC1(c2ccc(CN3CCN(c4ncccn4)CC3)cc2)CC1 | 145 to 146
87 | CCCc1nn(-c2ccc(C(F)(F)F)cn2)cc1CCCOc1cccc(CCC(=O)O)c1 | 97 to 98
88 | COc1ccc(S(=O)(=O)N=[N+]=[N-])cc1 | 48 to 50
89 | Cc1cc(COc2ccc(S(=O)(=O)NC[C@@H](C(=O)NO)N3CCN(Cc4ccccc4)CC3)cc2)c2ccccc2n1 | 188
90 | CCNc1cccc(NC(=O)COCC)c1C#N | 84 to 87
91 | CCOC(=O)Cn1nc(-c2ccc(OC)cc2)cc(C(=O)NC)c1=O | 141 to 142
92 | CN(C)c1ccc(/C=C/c2cc(/C=C/c3ccc4cc[nH]c4c3)[nH]n2)cc1 | 224 to 227
93 | CCC(=O)Nc1nc(CN2CCC(OC(c3ccccc3)c3ccccc3)CC2)cs1 | 86 to 88
94 | N[C@@H](CCC(=O)O)C(=O)N[C@@H](Cc1ccccc1)C(=O)OCc1ccccc1 | 103 to 104
95 | Nc1nc(O)c2c(n1)NCC(CCC1CCC(N[C@@H](CCC(=O)O)C(=O)O)CC1)C2 (stereo partly specified) | 210 to 225
96 | CC1(c2ccc(C#N)cc2)Cc2cc(O)c(Cl)c(Cl)c2C1=O (stereo unspecified) | 189 to 196
97 | COc1ccc(-c2cc3c(s2)c(=O)c(S(C)=O)cn3C)cc1 (stereo unspecified) | 262 to 264
98 | O=C(CCC#Cc1cccc(CF)n1)Nc1ccc(F)cc1 | 110
99 | CCCCCCCCCCCCCCCCCCNC(=O)OC(=O)CCCCCCCCCCCCCCCCC | 84
100 | Cc1cc2c(nc(C)n2CCc2ccccc2)c(N(Cc2ccccc2)Cc2ccccc2)n1 | 124 to 126
101 | Cc1cccc(CN2CCN(C(c3ccc(Cl)cc3)c3cccc(OCC(=O)O)c3)CC2)c1 (stereo unspecified) | 114 to 120
